Like-named read-outs stand apart in the source and are kept apart here.
Key:
[1] = biological target: T1, cruzipain (Trypanosoma cruzi, UniProt P25779); test: Inhibition of T. cruzi cruzipain (Z-Phe-Arg-AMC fluorogenic substrate); format: biochemical; conditions: read-out: Cruzipain % Inhib100
T1 construct: endogenous in cells; host or cells: T. cruzi epimastigotes, Tulahuen 2 strain
Description: Initially, we tested the dithioles as inhibitors of the protease cruzipain from T. cruzi at a concentration of 100 μM.
Cruzipain was purified to homogeneity from epimastigotes of the Tulahuen 2 strain by ConA-Sepharose affinity chromatography, as previously described. Cruzipain (2.5 μM ε = 58,285 M^−1·cm^−1) was incubated in 50 mM acetate buffer pH 5.5 with 50 mM DTT and 100 μM inhibitor was added, shaking the solution for 15 min at 27 °C. The derivatives were added diluted in DMSO, and the controls contained the same solvent concentration. The concentration of DMSO never exceeded 1% in the reaction medium. E-64 was used as a positive control of inhibition. Then, the fluorogenic substrate Z-Phe-Arg-AMC (100 μM) was added and the fluorescence was measured during 10 min at intervals of 3 s (excitation at 350 nm and emission at 460 nm) using a Varioskan Flash Spectrophotometer. From the slope of the negative control, we calculated the total (100%) enzyme activity, while the slopes obtained in the presence of the compounds yielded the percentage of remaining enzyme activity. The percentage of enzyme inhibition was determined as […]. The experiments were done in duplicate.

[2] = test system: epimastigotes of T. cruzi (Tulahuen 2 strain); test: Anti-T. cruzi test in vitro (epimastigote growth inhibition); format: cell-based, Trypanosoma cruzi; conditions: for IC50: Trypanosoma cruzi, read-out: IC50 against T. cruzi; for SI (selectivity index): macrophages (J774.1) vs T. cruzi epimastigotes
Description: (§1) To evaluate the anti-trypanosomal activity of the synthesized 3H-[1,2]dithioles we used T. cruzi, Tulahuen 2 strain (discrete typing unit, DTU, TcVI [18]) in the epimastigote form. […] To establish the selectivity of the compounds against the parasite, unspecific cytotoxicity against mammalian cells (J774.1 murine macrophages) was studied for the most relevant derivatives. The selectivity indexes (SI) were also determined (Table 1).
We used epimastigotes of the Tulahuen 2 strain (DTU, Tc VI) growing in an axenic milieu (BHI-Tryptose). Cells from a 5–7-day-old culture were inoculated in fresh culture milieu to give an initial concentration of 1 × 10^6 cells/mL. The absorbance at 600 nm of the cells in culture was measured every day. At day 5, the milieu was inoculated with different quantities of the compounds from a stock solution in DMSO (DMSO concentration in the culture milieu never exceeded 0.4%). The control was made in the presence of 0.4% DMSO and in the absence of compounds. […] At day 5, the absorbance of the culture was measured and related to the control. The IC50 value was taken as the concentration of drug needed to reduce the absorbance ratio to 50%.

[3] = biological target: T2, Trypanosoma cruzi triosephosphate isomerase (TcTIM) (Trypanosoma cruzi, UniProt P52270); test: Inhibition of enzymatic activity of TcTIM; format: biochemical; conditions: for inhibition at 200 µM: read-out: TcTIM % Inhib200; for IC50: isolated enzyme, 2 h incubation at 36 °C; for inhibition at 25 µM: read-out: TcTIM % Inhib25
T2 construct: made in house; host or cells: Escherichia coli
T2 sequence (P52270 whole entry): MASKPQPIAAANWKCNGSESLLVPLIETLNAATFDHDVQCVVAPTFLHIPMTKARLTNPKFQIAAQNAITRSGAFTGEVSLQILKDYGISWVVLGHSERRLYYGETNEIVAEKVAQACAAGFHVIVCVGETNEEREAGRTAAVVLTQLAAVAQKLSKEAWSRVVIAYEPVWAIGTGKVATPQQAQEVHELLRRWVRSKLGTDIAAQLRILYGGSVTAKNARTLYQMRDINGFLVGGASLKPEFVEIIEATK
Description: In order to investigate if the 3H-[1,2]dithioles inhibit TcTIM, we initially tested the inhibitory capacity of the compounds at a concentration of 200 μM and then at 25 μM.
Expression and purification of protein: TcTIM was expressed in Escherichia coli and purified as described in the literature. After purification, the enzyme, dissolved in 100 mM triethanolamine, 10 mM EDTA and 1 mM dithiothreitol (pH 8), was precipitated with ammonium sulfate (75% saturation) and stored at 4 °C. Before use, extensive dialysis against 100 mM triethanolamine/10 mM EDTA (pH 7.4) was performed. Protein concentration was determined by absorbance at 280 nm (ε = 36,440 M^−1·cm^−1).
Enzymatic activity assays. Enzymatic activity was determined following the conversion of glyceraldehyde 3-phosphate into dihydroxyacetone phosphate. The decrease in absorbance at 340 nm was followed in a multicell Cary spectrophotometer at 25 °C. The reaction mixture (1 mL, pH 7.4) contained 100 mM triethanolamine, 10 mM EDTA, 0.2 mM NADH, 1 mM glyceraldehyde 3-phosphate, and 0.9 units of α-glycerol phosphate dehydrogenase. The reaction was initiated by addition of 5 ng/mL of the TcTIM.
For inactivation studies, TcTIM was incubated at a concentration of 5 mg/mL in a buffer containing 100 mM triethanolamine, 10 mM EDTA, pH 7.4 and 10% of DMSO at 36 °C. The mixture also contained the compounds at the indicated concentrations. Compounds were dissolved in DMSO. After 2 h, […] was withdrawn and added to 1 mL of reaction mixture for the activity assay. None of the molecules tested here affected the activity of α-glycerol phosphate dehydrogenase, the enzyme used for trapping the product.
The IC50 value was taken as the concentration of drug needed to reduce the enzymatic activity to 50%. The experiments were performed in triplicate.

[4] = biological target: T1, cruzipain; test: Inhibition of T. cruzi cruzipain (Z-Phe-Arg-AMC fluorogenic substrate); format: biochemical; conditions: isolated enzyme
[5] = test system: J774.1 murine macrophages; test: Unspecific in vitro cytotoxicity of mammalian cells (MTT); format: cell-based; conditions: Mus musculus, 48 h exposure, read-out: IC50 against Macrophages
Description: as §1
J774.1 murine macrophage cells (ATCC, Manassas, VA, USA) were grown in DMEM culture milieu containing 4 mM L-glutamine and supplemented with 10% heat-inactivated fetal calf serum. […] Afterwards, cells were exposed for 48 h to the compounds (25–400 μM) or vehicle for control (0.4% DMSO), and additional controls (cells in medium) were used in each test. Cell viability was then assessed by measuring the mitochondria-dependent reduction of MTT (3-(4,5-dimethylthiazol-2-yl)-2,5-diphenyltetrazolium bromide) to formazan. For this purpose, MTT in sterile PBS (0.2% glucose) pH 7.4 was added to the macrophages to achieve a final concentration of 0.1 mg/mL and the cells were incubated at 37 °C for 3 h. After removing the medium, formazan crystals were dissolved in 180 μL of DMSO and 20 μL of MTT buffer (0.1 M glycine, 0.1 M NaCl, 0.5 mM EDTA, pH 10.5) and the absorbance at 560 nm was measured. The IC50 was defined as the drug concentration at which 50% of the cells were viable, relative to the control (no drug added), and was determined by analysis using OriginLab8.5® sigmoidal regression (% of viable cells vs. logarithm of the compound concentration). Samples were performed in triplicate.

[6] = percentage of enzymatic inhibition at 100 μM
[7] = epimastigotes, Tulahuen 2 strain, triplicate
[8] = percentage of enzymatic inhibition at 200 μM
[9] = percentage of enzymatic inhibition at 25 μM

T1 sequence (P25779 123-467): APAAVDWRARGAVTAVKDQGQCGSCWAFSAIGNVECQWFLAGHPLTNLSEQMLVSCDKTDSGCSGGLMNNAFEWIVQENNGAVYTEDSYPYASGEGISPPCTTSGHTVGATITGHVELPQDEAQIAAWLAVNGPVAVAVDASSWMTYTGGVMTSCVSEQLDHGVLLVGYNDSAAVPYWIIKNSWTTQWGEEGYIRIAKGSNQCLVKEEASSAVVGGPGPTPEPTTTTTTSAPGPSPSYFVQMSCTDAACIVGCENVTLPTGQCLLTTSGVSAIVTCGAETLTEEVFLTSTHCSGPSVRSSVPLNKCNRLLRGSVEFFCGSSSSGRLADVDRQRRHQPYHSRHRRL

| Compound | inhibition at 100 µM [1, 6] [%] | IC50 [2, 7] [µM] | inhibition at 200 µM [3, 8] [%] | IC50 [3] [µM] | inhibition at 25 µM [3, 9] [%] | IC50 [4] [µM] | further results |
| --- | --- | --- | --- | --- | --- | --- | --- |
| O=C(/C=C/c1ccccc1)Oc1ccc(-c2cc(=S)ss2)cc1 [Derivative 7] | 78.4 ± 0.6 | > 25 | 14 |  |  |  |  |
| O=C(C[S+]=c1cc(-c2ccc(O)cc2)ss1)c1ccc2ccccc2c1 [Derivative 18] | 77.1 ± 0.1 | > 25 | 70 | 11.03 ± 0.03 | 75 ± 0.3 |  |  |
| COc1ccc(-c2cc(=[S+]CC(=O)c3ccccc3)ss2)cc1 [Derivative 20] | 72 ± 0.1 | > 25 |  |  |  |  |  |
| O=C(/C=C/c1ccc(C(=O)Oc2ccc(-c3cc(=S)ss3)cc2)cc1)c1ccccc1 [Derivative 8] | 58 ± 0.1 | > 25 |  |  |  |  |  |
| COc1ccc(-c2cc(=S)ss2)cc1 [Derivative 5] | 89 ± 0.5 | > 25 | 86 | 1.2 ± 0.05 | 80 ± 2.3 | 4 ± 2 | IC50 against T. cruzi [2, 7]: inactive |
| CC(=O)COc1ccc(-c2cc(=S)ss2)cc1 [Derivative 10] | 73.9 ± 0.1 | > 25 | 70 |  | 61 ± 1 |  |  |
| O=C(Cc1ccccc1)Oc1ccc(-c2cc(=S)ss2)cc1 [Derivative 1] |  |  |  |  |  |  | inhibition at 100 µM [1]: 21.3 ± 0.3%; IC50 ([2]; TULAHUEN): > 25 µM; inhibition at 25 µM [3]: 33 ± 1.9%; inhibition at 200 µM [3]: 77% |
| COc1ccc(C2=C/C(=C(\SCC(=O)c3ccccc3)C(=O)c3ccccc3)SS2)cc1 [Derivative 16] | 62.3 ± 0.3 | > 25 | 77 | 7.53 ± 0.1 | 63 ± 0.1 |  |  |
| COc1ccc(-c2cc(=[S+]CC(C)=O)ss2)cc1 [Derivative 19] | 90.5 ± 0.7 | > 25 | 95 | 3.26 ± 0.05 | 73 ± 3.2 | 11.3 ± 0.6 | IC50 against T. cruzi [2, 7]: inactive |
| Oc1ccc(-c2cc(=S)ss2)cc1 [Derivative 6] | 59.3 ± 0.3 | 25 ± 1 | 71 |  | 35 ± 3 |  | SI (selectivity index) [2]: 2.0; IC50 [5]: 51 ± 2 µM |
| O=C(Oc1ccc(-c2cc(=S)ss2)cc1)c1ccc(/C=C/C(=O)c2ccccc2O)cc1 [Derivative 9] | 77.9 ± 0.6 | 25 ± 0.5 | 50 |  |  |  | SI (selectivity index) [2]: 2.5; IC50 [5]: 63 ± 2 µM |
| O=C(COc1ccc(-c2cc(=S)ss2)cc1)c1ccccc1 [Derivative 11] | 96.3 ± 0.7 | > 25 |  |  |  | 17.1 ± 3.6 |  |
| COc1ccc(-c2cc(=[S+]CC(=O)c3ccc4ccccc4c3)ss2)cc1 [Derivative 21] | 90.2 ± 0.6 | > 25 | 65 |  |  | 17.7 ± 3.9 |  |
| COc1ccc(C2=C/C(=C(\SCC(=O)c3ccc4ccccc4c3)C(=O)c3ccc4ccccc4c3)SS2)cc1 [Derivative 17] | 82.6 ± 0.6 | > 25 | 81 |  | 52 ± 2.5 |  |  |
| O=C(COc1ccc(-c2cc(=S)ss2)cc1)c1ccc2ccccc2c1 [Derivative 12] | 91.5 ± 0.6 | > 25 | 70 |  |  | 21.6 ± 6.1 | TcTIM % Inhib25 [3, 9]: ni ^d |
| O=C(CS/C(C(=O)c1ccccc1)=C1\C=C(c2ccc(O)cc2)SS1)c1ccccc1 [Derivative 13] | 61 ± 0.3 | 5.5 ± 0.9 | 86 | 3.35 ± 0.14 | 75 ± 6 |  | SI (selectivity index) [2]: 6.2; IC50 [5]: 34 ± 0.5 µM |

From PMC6332334, “3-H-[1,2]Dithiole as a New Anti-Trypanosoma cruzi Chemotype: Biological and Mechanism of Action Studies” (Molecules, 2015)
